# Test results: patent publication US10329320B2, “Neuroactive steroids, compositions, and uses thereof” (Sage Therapeutics, Inc., priority 2015, dated 2019)
# Target: GABAA receptor ([35S]-TBPS binding, rat brain cortical membranes)
# Test: Steroid inhibition of [35S]-TBPS binding (radioligand displacement)
# Conditions: 3 nM [35S]-TBPS, in the presence of 5 μM GABA
# Experimental: TBPS binding assays using rat brain cortical membranes in the presence of 5 μM GABA has been described (Gee et al, J. Pharmacol. Exp. Ther. 1987, 241, 346-353; Hawkinson et al, Mol. Pharmacol. 1994, 46, 977-985; Lewin, A. H et al., Mol. Pharmacol. 1989, 35, 189-194).
# Briefly, cortices are rapidly removed following decapitation of carbon dioxide-anesthetized Sprague-Dawley rats (200-250 g). The cortices are homogenized in 10 volumes of ice-cold 0.32 M sucrose using a glass/teflon homogenizer and centrifuged at 1500×g for 10 min at 4° C. The resultant supernatants are centrifuged at 10,000×g for 20 min at 4° C. to obtain the P2 pellets. The P2 pellets are resuspended in 200 mM NaCl/50 mM Na—K phosphate pH 7.4 buffer and centrifuged at 10,000×g for 10 min at 4° C. This washing procedure is repeated twice and the pellets are resuspended in 10 volumes of buffer. Aliquots (100 μL) of the membrane suspensions are incubated with 3 nM [^35S]-TBPS and 5 μL aliquots of test drug dissolved in dimethyl sulfoxide (DMSO) (final 0.5%) in the presence of 5 μM GABA. The incubation is brought to a final volume of 1.0 mL with buffer. Nonspecific binding is determined in the presence of 2 μM unlabeled TBPS and ranged from 15 to 25%. Following a 90 min incubation at room temp, the assays are terminated by filtration through glass fiber filters (Schleicher and Schuell No. 32) using a cell harvester (Brandel) and rinsed three times with ice-cold buffer. Filter bound radioactivity is measured by liquid scintillation spectrometry. Non-linear curve fitting of the overall data for each drug averaged for each concentration is done using Prism (GraphPad). […] The concentration of test compound producing 50% inhibition (IC50) of specific binding and the maximal extent of inhibition (Imax) are determined for the individual experiments with the same model used for the overall data and then the means ±SEM.s of the individual experiments are calculated.
# Various compounds are or can be screened to determine their potential as modulators of [^35S]-TBPS binding in vitro. These assays are or can be performed in accordance with the above discussed procedures.
row,Structure (SMILES),IC50 [nM]
1,COC[C@]12CC[C@@](C)(O)C[C@H]1CC[C@H]1[C@@H]3CC[C@H](C(=O)Cn4ccnc4C)[C@@]3(C)CC[C@@H]12 [Compound 64],100 to 500
2,COC[C@]12CC[C@@](C)(O)C[C@@H]1CC[C@H]1[C@@H]3CC[C@H](C(=O)Cn4ncc(C(=O)O)n4)[C@@]3(C)CC[C@@H]12 [Compound 81],> 500
3,COC[C@]12CC[C@@](C)(O)C[C@H]1CC[C@H]1[C@@H]3CC[C@H](C(=O)Cn4nc5cccc(OC)c5n4)[C@@]3(C)CC[C@@H]12 [Compound 30],< 10
4,COC[C@]12CC[C@@](C)(O)C[C@@H]1CC[C@H]1[C@@H]3CC[C@H](C(=O)Cn4nnc5c(F)c(Cl)ccc54)[C@@]3(C)CC[C@@H]12 [Compound 51],< 10
5,COC[C@]12CC[C@@](C)(O)C[C@@H]1CC[C@H]1[C@@H]3CC[C@H](C(=O)Cn4nc5cc(Cl)cnc5n4)[C@@]3(C)CC[C@@H]12 [Compound 13],< 10
6,COC[C@]12CC[C@@](C)(O)C[C@H]1CC[C@H]1[C@@H]3CC[C@H](C(=O)Cn4cc([S+](C)[O-])cn4)[C@@]3(C)CC[C@@H]12 (some centres unmarked) [Compound 22],100 to 500
7,COC[C@]12CC[C@@](C)(O)C[C@@H]1CC[C@H]1[C@@H]3CC[C@H](C(=O)Cn4ncc5ccc(OC)cc54)[C@@]3(C)CC[C@@H]12 [Compound 49],50 to 100
8,COC[C@]12CC[C@@](C)(O)C[C@@H]1CC[C@H]1[C@@H]3CC[C@H](C(=O)Cn4ncc5c(OC)cccc54)[C@@]3(C)CC[C@@H]12 [Compound 45],50 to 100
9,COC[C@]12CC[C@@](C)(O)C[C@H]1CC[C@H]1[C@@H]3CC[C@H](C(=O)Cn4nc5ccc(OC)cc5n4)[C@@]3(C)CC[C@@H]12 [Compound 27],< 10
10,COC[C@]12CC[C@@](C)(O)C[C@@H]1CC[C@H]1[C@@H]3CC[C@H](C(=O)Cn4cc5c(OC)cccc5n4)[C@@]3(C)CC[C@@H]12 [Compound 40],50 to 100
11,COC[C@]12CC[C@@](C)(O)C[C@H]1CC[C@@H]1[C@@H]2CC[C@]2(C)C(C(=O)Cn3nnnc3C)CC[C@@H]12 (some centres unmarked) [Compound 74],100 to 500
12,COC[C@]12CC[C@@](C)(O)C[C@H]1CC[C@H]1[C@@H]3CC[C@H](C(=O)Cn4cc5cc(F)ccc5n4)[C@@]3(C)CC[C@@H]12 [Compound 17],10 to 50
13,COC[C@]12CC[C@@](C)(O)C[C@H]1CC[C@H]1[C@@H]3CC[C@H](C(=O)Cn4cc(N)cn4)[C@@]3(C)CC[C@@H]12 [Compound 66],10 to 50
14,CCOC(=O)c1cn(CC(=O)[C@H]2CC[C@H]3[C@@H]4CC[C@H]5C[C@](C)(O)CC[C@]5(COC)[C@H]4CC[C@]23C)nn1 [Compound 80],100 to 500
15,COC[C@]12CC[C@@](C)(O)C[C@H]1CC[C@H]1[C@@H]3CC[C@H](C(=O)Cn4nc5ccc(Cl)c(F)c5n4)[C@@]3(C)CC[C@@H]12 [Compound 24],< 10
16,COC[C@]12CC[C@@](C)(O)C[C@H]1CC[C@H]1[C@@H]3CC[C@H](C(=O)Cn4cc(SC)cn4)[C@@]3(C)CC[C@@H]12 [Compound 34],10 to 50
17,COC[C@]12CC[C@@](C)(O)C[C@H]1CC[C@H]1[C@@H]3CC[C@H](C(=O)Cn4cc(SC)cn4)[C@@]3(C)CC[C@@H]12 [Compound 21],< 10
18,COC[C@]12CC[C@@](C)(O)C[C@@H]1CC[C@H]1[C@@H]3CC[C@H](C(=O)Cn4cc5c(OC)cccc5n4)[C@@]3(C)CC[C@@H]12 [Compound 44],10 to 50
19,COC[C@]12CC[C@@](C)(O)C[C@H]1CC[C@H]1[C@@H]3CC[C@H](C(=O)Cn4nnc5ccccc54)[C@@]3(C)CC[C@@H]12 [Compound 18],< 10
20,COC[C@]12CC[C@@](C)(O)C[C@H]1CC[C@H]1[C@@H]3CC[C@H](C(=O)Cn4ncc5ccc(F)cc54)[C@@]3(C)CC[C@@H]12 [Compound 15],< 10
21,COC[C@]12CC[C@@](C)(O)C[C@H]1CC[C@H]1[C@@H]3CC[C@H](C(=O)Cn4cc5ccccc5n4)[C@@]3(C)CC[C@@H]12 [Compound 19],< 10
22,COC[C@]12CC[C@@](C)(O)C[C@H]1CC[C@H]1[C@@H]3CC[C@H](C(=O)Cn4cc(C(F)(F)F)cn4)[C@@]3(C)CC[C@@H]12 [Compound 67],10 to 50
23,COC[C@]12CC[C@@](C)(O)C[C@@H]1CC[C@H]1[C@@H]3CC[C@H](C(=O)Cn4cc5cc(F)ncc5n4)[C@@]3(C)CC[C@@H]12 [Compound 75],100 to 500
24,COC[C@]12CC[C@@](C)(O)C[C@@H]1CC[C@H]1[C@@H]3CC[C@H](C(=O)Cn4ncc5cc(OC)ccc54)[C@@]3(C)CC[C@@H]12 [Compound 43],50 to 100

row,Structure (SMILES),IC50 [nM]
1,COC[C@]12CC[C@@](C)(O)C[C@H]1CC[C@H]1[C@@H]3CC[C@H](C(=O)Cn4nnc5c(OC)cccc54)[C@@]3(C)CC[C@@H]12 [Compound 28],< 10
2,COC[C@]12CC[C@@](C)(O)C[C@@H]1CC[C@H]1[C@@H]3CC[C@H](C(=O)Cn4cc(C(=O)O)nn4)[C@@]3(C)CC[C@@H]12 [Compound 82],> 500
3,COC[C@]12CC[C@@](C)(O)C[C@H]1CC[C@H]1[C@@H]3CC[C@H](C(=O)Cn4nnc5ccc(OC)cc54)[C@@]3(C)CC[C@@H]12 [Compound 25],< 10
4,CC(C)OC[C@]12CC[C@@](C)(O)C[C@H]1CC[C@H]1[C@@H]3CC[C@H](C(=O)Cn4nnc5c(F)c(F)ccc54)[C@@]3(C)CC[C@@H]12 [Compound 68],< 10
5,COC[C@]12CC[C@@](C)(O)C[C@@H]1CC[C@H]1[C@@H]3CC[C@H](C(=O)Cn4ncc5cccc(OC)c54)[C@@]3(C)CC[C@@H]12 [Compound 41],50 to 100
6,COC[C@]12CC[C@@](C)(O)C[C@@H]1CC[C@H]1[C@@H]3CC[C@H](C(=O)Cn4cc5ccc(OC)cc5n4)[C@@]3(C)CC[C@@H]12 [Compound 48],50 to 100
7,COC[C@]12CC[C@@](C)(O)C[C@@H]1CC[C@H]1[C@@H]3CC[C@H](C(=O)Cn4cc(OC(C)C)cn4)[C@@]3(C)CC[C@@H]12 [Compound 38],50 to 100
8,COC[C@]12CC[C@@](C)(O)C[C@@H]1CC[C@H]1[C@@H]3CC[C@H](C(=O)Cn4cc5ccncc5n4)[C@@]3(C)CC[C@@H]12 [Compound 46],10 to 50
9,COC[C@]12CC[C@@](C)(O)C[C@@H]1CC[C@H]1[C@@H]3CC[C@H](C(=O)Cn4cc5ccc(OC)cc5n4)[C@@]3(C)CC[C@@H]12 [Compound 42],10 to 50
10,CCOc1cnn(CC(=O)[C@H]2CC[C@H]3[C@@H]4CC[C@H]5C[C@](C)(O)CC[C@]5(COC)[C@H]4CC[C@]23C)c1 [Compound 61],100 to 500
11,COC[C@]12CC[C@@](C)(O)C[C@H]1CC[C@H]1[C@@H]3CC[C@H](C(=O)Cn4nnnc4C)[C@@]3(C)CC[C@@H]12 [Compound 63],100 to 500
12,COC[C@]12CC[C@@](C)(O)C[C@@H]1CC[C@H]1[C@@H]3CC[C@H](C(=O)Cn4cc(C)cn4)[C@@]3(C)CC[C@@H]12 [Compound 60],100 to 500
13,COC[C@]12CC[C@@](C)(O)C[C@H]1CC[C@H]1[C@@H]3CC[C@H](C(=O)Cn4cnc(F)c4)[C@@]3(C)CC[C@@H]12 [Compound 52],10 to 50
14,COC[C@]12CC[C@@](C)(O)C[C@H]1CC[C@H]1[C@@H]3CC[C@H](C(=O)Cn4nnc5cc(OC)ccc54)[C@@]3(C)CC[C@@H]12 [Compound 26],< 10
15,CC(C)OC[C@]12CC[C@@](C)(O)C[C@H]1CC[C@H]1[C@@H]3CC[C@H](C(=O)Cn4nc5ccc(F)c(F)c5n4)[C@@]3(C)CC[C@@H]12 [Compound 70],< 10
16,CC(C)OC[C@]12CC[C@@](C)(O)C[C@H]1CC[C@H]1[C@@H]3CC[C@H](C(=O)Cn4nnc5ccc(F)c(F)c54)[C@@]3(C)CC[C@@H]12 [Compound 69],< 10
17,COC[C@]12CC[C@@](C)(O)C[C@H]1CC[C@H]1[C@@H]3CC[C@H](C(=O)Cn4cc5ccc(F)cc5n4)[C@@]3(C)CC[C@@H]12 [Compound 14],< 10
18,COC[C@]12CC[C@@](C)(O)C[C@@H]1CC[C@H]1[C@@H]3CC[C@H](C(=O)Cn4nnc5cc(Cl)cnc54)[C@@]3(C)CC[C@@H]12 [Compound 12],< 10
19,COC[C@]12CC[C@@](C)(O)C[C@@H]1CC[C@H]1[C@@H]3CC[C@H](C(=O)Cn4ncc(C(N)=O)n4)[C@@]3(C)CC[C@@H]12 [Compound 83],100 to 500
20,COC[C@]12CC[C@@](C)(O)C[C@@H]1CC[C@H]1[C@@H]3CC[C@H](C(=O)Cn4nc5cc(F)cc(F)c5n4)[C@@]3(C)CC[C@@H]12 [Compound 10],< 10
21,COC[C@]12CC[C@@](C)(O)C[C@@H]1CC[C@H]1[C@@H]3CC[C@H](C(=O)Cn4cnc(F)c4)[C@@]3(C)CC[C@@H]12 [Compound 59],100 to 500
22,COC[C@]12CC[C@@](C)(O)C[C@H]1CC[C@H]1[C@@H]3CC[C@H](C(=O)Cn4nnc5cccc(OC)c54)[C@@]3(C)CC[C@@H]12 [Compound 29],< 10
23,COC[C@]12CC[C@@](C)(O)C[C@@H]1CC[C@H]1[C@@H]3CC[C@H](C(=O)Cn4ccnc4C#N)[C@@]3(C)CC[C@@H]12 [Compound 36],100 to 500
